# Source: PMC9719540, “Synthesis of an amphiphilic vancomycin aglycone derivative inspired by polymyxins: overcoming glycopeptide resistance in Gram-positive and Gram-negative bacteria in synergy with teicoplanin in vitro” (Scientific Reports, 2022)
# Several values for one entry are separate records, joined by “and”; a condition that tells them apart may be missing. Equal entries are not always repeated. Structures can show the parent of a compound that is named as a salt. Where two headings read alike, the source gives them in different places.
# Assays:
# [1] = test system: Escherichia coli ATCC 25218; test: Antibacterial activity (MIC); type: cell-based; details: ATCC25218
# Description: (§1) The routine antibacterial evaluations were carried out as it was described in our previous publication. Antimicrobial synergy was determined by evaluating the fractional inhibitory concentration (FIC) index and was characterized by a conventional checkerboard assay. Bacteria grown to mid-logarithmic phase in MHB were pre-incubated with serially diluted concentrations of teicoplanin or vancomycin and compound 14. The sum of the FICs (ΣFIC) was calculated with the equation ΣFIC = FICA + FICB = (CA/MICA) + (CB/MICB), where MICA and MICB are the MICs of antimicrobial A and B alone, respectively, and CA and CB are the inhibitory concentrations of the drugs when combined, respectively. Synergy was defined as a ΣFICs ≤ 0.5 and additive activity was defined as a ΣFICs > 0.5 ≤ 1.0.
# [2] = test system: Klebsiella pneumoniae ST258 clone K 160/09; test: Antibacterial activity (MIC); type: cell-based
# Description: as §1
# [3] = test system: Staphylococcus aureus MRSA ATCC 33591; test: Antibacterial activity (MIC); type: cell-based
# Description: as §1
# [4] = test system: Acinetobacter baumannii ATCC BAA1605; test: Antibacterial activity (MIC); type: cell-based
# Description: as §1
# [5] = test system: Bacillus subtilis ATCC 6633; test: Antibacterial activity (MIC); type: cell-based; details: ATCC6633
# Description: as §1
# [6] = test system: Staphylococcus epidermidis ATCC 35984 biofilm; test: Antibacterial activity (MIC); type: cell-based
# Description: as §1
# [7] = test system: Enterococcus faecalis 15376 VanA; test: Antibacterial activity (MIC); type: cell-based
# Description: as §1
# [8] = test system: Enterococcus faecalis ATCC 51299 VanB; test: Antibacterial activity (MIC); type: cell-based
# Description: as §1
# [9] = test system: Pseudomonas aeruginosa ATCC 27853; test: Antibacterial activity (MIC); type: cell-based; details: ATCC27853
# Description: as §1
# [10] = test system: Enterococcus faecalis ATCC 29212; test: Antibacterial activity (MIC); type: cell-based; details: for MIC: ATCC29212
# Description: as §1
# [11] = test system: Staphylococcus epidermidis mecA; test: Antibacterial activity (MIC); type: cell-based
# Description: as §1
# [12] = test system: Staphylococcus aureus MSSA ATCC 29213; test: Antibacterial activity (MIC); type: cell-based
# Description: as §1
# [13] = test system: Escherichia coli ATCC 25218; test: Checkerboard assay, combined susceptibility (FIC index); type: cell-based; details: for MIC of antibiotic in comb.: antibiotic combined with 14; for MIC of antibiotic alone: checkerboard
# Description: (§2) To determine the activity profile of teicoplanin and vancomycin in combination with compound 14, combined susceptibility tests were perfomed against […] Gram negative strains including Escherichia coli, Pseudomonas aeruginosa, Acinetobacter baumannii and Klebsiella pneumoniae bacteria. The combined effects of compound 14 and the glycopeptide antibiotics were determined by conventional checkerboard assays (images of the chequerboard assay for synergistic combinations are shown in Supplementary Information S1).
# as §1
# [14] = test system: Klebsiella pneumoniae ST258 clone K 160/09; test: as above; type: cell-based; details: for MIC of antibiotic in comb.: antibiotic combined with 14
# Description: as §2, §1
# [15] = test system: Acinetobacter baumannii ATCC BAA1605; test: as above; type: cell-based; details: for MIC of antibiotic in comb.: antibiotic combined with 14; for MIC of antibiotic alone: checkerboard
# Description: as §2, §1
# [16] = test system: Pseudomonas aeruginosa ATCC 27853; test: as above; type: cell-based; details: for MIC of antibiotic in comb.: antibiotic combined with 14; for MIC of antibiotic alone: checkerboard
# Description: as §2, §1
# [17] = MTT cytotoxicity (cell viability); type: cell-based, human; details: human; Caco-2 cells, MTT, 72 h
# Description: (§3) Human Caco-2 intestinal epithelial cells were obtained from European Collection of Cell Cultures (ECACC, UK) and grown routinely in Dulbecco’s Minimum Essential Medium (DMEM), supplemented with 10% fetal bovine serum (FBS), 1% non-essential amino acid and 1% penicillin–streptomycin solution.
# (§4) In cell viability experiments, 1 × 10^4 hCMEC/D3 or Caco-2 cells/well were seeded on 96-weel plates. After 24 h of incubation, cells were treated with test solutions in different concentrations. The stock solution of the test molecule was dissolved in DMSO and further diluted with cell culture medium to prepare test solutions. […] The control group received culture medium. Cells were incubated with the test solutions for 72 h at 37 °C in an atmosphere of 5% CO2, and test solutions were replaced with 0.05 mg/ml 3-(4,5-dimethylthiazol-2-yl)-2,5-diphenyltetrazolium bromide (MTT) solutions prepared in PBS. Cells were incubated with MTT solutions for 4 h at 37 °C and the formed dark blue formazan crystals were dissolved in acidic isopropanol (isopropanol: 1.0 N hydrochloric acid = 25:1). The absorbance was measured at 570 nm against a 690 nm reference wavelength with a Thermo Fisher Multiskan Go microplate reader (Thermo Fisher, Waltham, MA, USA). Cell viability was expressed as the percentage of the untreated control and IC50 values were calculated by GraphPad Prism 7 software (GraphPad Software Inc., San Diego, CA, USA).
# [18] = test system: hCMEC/D3 cells; test: MTT cytotoxicity (cell viability); type: cell-based, human
# Description: (§5) The human immortalized hCMEC/D3 cells (Merck KGaA, Darmstadt, Germany, Cat. # SCC066) were cultured in EndoGRO-MV Complete Culture Media (supplemented with the components of the kit and fibroblast growth factor 2 (FGF-2) at 1 ng/mL final concentration).
# as §4
# [19] = test system: Caco-2 cells; test: MTT cytotoxicity (cell viability); type: cell-based, human
# Description: as §3, §4
# [20] = test system: hCMEC/D3 cells; test: MTT cytotoxicity of combinations, checkerboard configuration; type: cell-based, human
# Description: as §5
# as §4, with “CA, USA). […]” for “CA, USA).”
# [21] = test system: Caco-2 cells; test: as above; type: cell-based, human; details: teicoplanin : compound 14 32:2 µg/mL
# Description: as §3
# as §4, with “in PBS. […] The absorbance” for “in PBS. Cells were incubated with MTT solutions for 4 h at 37 °C and the formed dark blue formazan crystals were dissolved in acidic isopropanol (isopropanol: 1.0 N hydrochloric acid = 25:1). The absorbance”, “CA, USA). […]” for “CA, USA).”
# [22] = between 0.082 and 200 µM (0.155–375.94 µg/mL)
compound,measurement,setting,value
CN[C@H](CC(C)C)C(=O)N[C@H]1C(=O)N[C@@H](CC(N)=O)C(=O)N[C@H]2C(=O)N[C@H]3C(=O)N[C@H](C(=O)N[C@H](C(=O)O)c4cc(O)cc(O)c4-c4cc3ccc4O)[C@H](O)c3ccc(c(Cl)c3)Oc3cc2cc(c3O[C@@H]2O[C@H](CO)[C@@H](O)[C@H](O)[C@H]2O[C@H]2C[C@](C)(N)[C@H](O)[C@H](C)O2)Oc2ccc(cc2Cl)[C@H]1O [Vancomycin],MIC,[1]; Escherichia coli,256 µg/mL
same,MIC,[2]; Klebsiella pneumoniae,256 µg/mL
same,MIC,[3]; Staphylococcus aureus,0.5 µg/mL
same,MIC,"[4]; Acinetobacter baumannii, ATCCBAA1605",128 µg/mL
same,MIC,[5]; Bacillus subtilis,0.5 µg/mL
same,MIC,"[6]; Staphylococcus epidermidis, ATCC35984",2 µg/mL
same,MIC,"[7]; Enterococcus faecalis, 15376VANA",256 µg/mL
same,MIC,"[8]; Enterococcus faecalis, ATCC51299",128 µg/mL
same,MIC,[9]; Pseudomonas aeruginosa,256 µg/mL
same,MIC,[10]; Enterococcus faecalis,1 µg/mL
same,MIC,[11]; Staphylococcus epidermidis,4 µg/mL
same,MIC,[12]; Staphylococcus aureus,0.5 µg/mL
same,MIC of antibiotic in comb.,[13],2 µg/mL
same,MIC of antibiotic alone,[13],256 µg/mL
same,MIC of antibiotic in comb.,[14],256 µg/mL
same,MIC of antibiotic alone,[14]; checkerboard,256 µg/mL
same,MIC of antibiotic in comb.,[15],64 µg/mL
same,MIC of antibiotic alone,[15],128 µg/mL
same,MIC of antibiotic in comb.,[16],16 µg/mL
same,MIC of antibiotic alone,[16],256 µg/mL
same,IC50 at 72 h,[17],54.2 µM and 78.7 µg/mL
Teicoplanin,cytotoxic effect,[18]; [22],did not show cytotoxic effect
same,MIC,[1]; Escherichia coli,256 µg/mL
same,MIC,[2]; Klebsiella pneumoniae ST258 clone K 160/09,256 µg/mL
same,MIC,[3]; Staphylococcus aureus MRSA ATCC 33591,0.5 µg/mL
same,MIC,[4]; Acinetobacter baumannii ATCC BAA1605,128 µg/mL
same,MIC,[5]; Bacillus subtilis,0.5 µg/mL
same,MIC,[6]; Staphylococcus epidermidis ATCC 35984 biofilm,4 µg/mL
same,MIC,[7]; Enterococcus faecalis 15376 VanA,256 µg/mL
same,MIC,[8]; Enterococcus faecalis ATCC 51299 VanB,0.5 µg/mL
same,MIC,[9]; Pseudomonas aeruginosa,256 µg/mL
same,MIC,[10]; Enterococcus faecalis,1 µg/mL
same,MIC,[11]; Staphylococcus epidermidis mecA,16 µg/mL
same,MIC,[12]; Staphylococcus aureus MSSA ATCC 29213,0.5 µg/mL
same,MIC of antibiotic in comb.,[13],2 µg/mL
same,MIC of antibiotic alone,[13],256 µg/mL
same,MIC of antibiotic in comb.,[14],256 µg/mL
same,MIC of antibiotic alone,[14]; checkerboard,256 µg/mL
same,MIC of antibiotic in comb.,[15],32 µg/mL
same,MIC of antibiotic alone,[15],128 µg/mL
same,MIC of antibiotic in comb.,[16],32 µg/mL
same,MIC of antibiotic alone,[16],256 µg/mL
same,cytotoxic effect,[19]; [22],did not show cytotoxic effect
"CCCCCCCCCC(=O)N[C@H](CC(C)C)C(=O)N[C@H]1C(=O)N[C@@H](CC(N)=O)C(=O)N[C@H]2C(=O)N[C@H]3C(=O)N[C@H](C(=O)N[C@H](C(=O)NCCN)c4cc(OCCN)cc(OCCN)c4-c4cc3ccc4OCCN)[C@H](O)c3ccc(c(Cl)c3)Oc3cc2cc(c3OCCN)Oc2ccc(cc2Cl)[C@H]1O [Compound 14, Tetraaminoethyl N-decanoyl norvancomycin aglycone aminoethyl amide trifluoroacetate salt]",IC50,"[18]; MTT, 72 h",56.2 ± 7.74 µM
same,IC50 (cytotoxicity),"[18]; MTT, 72 h",116.29 ± 16 µg/mL
same,MIC,"[1]; Escherichia coli ATCC 25218, read-out: MIC",128 µg/mL
same,MIC,"[2]; Klebsiella pneumoniae ST258 clone K 160/09, read-out: MIC",256 µg/mL
same,MIC,"[3]; Staphylococcus aureus MRSA ATCC 33591, read-out: MIC",8 µg/mL
same,MIC,"[4]; ATCCBAA1605, Acinetobacter baumannii ATCC BAA1605, read-out: MIC",128 µg/mL
same,MIC,"[5]; Bacillus subtilis ATCC 6633, read-out: MIC",4 µg/mL
same,MIC,"[6]; ATCC35984, Staphylococcus epidermidis ATCC 35984 biofilm, read-out: MIC",4 µg/mL
same,MIC,"[7]; Enterococcus faecalis 15376 VanA, read-out: MIC",8 µg/mL
same,times more potent than vancomycin (MIC ratio),[7]; resistant VanA E. faecalis,32 times
same,MIC,"[8]; ATCC51299, Enterococcus faecalis ATCC 51299 VanB, read-out: MIC",32 µg/mL
same,MIC,"[9]; Pseudomonas aeruginosa ATCC 27853, read-out: MIC",128 µg/mL
same,MIC,"[10]; Enterococcus faecalis ATCC 29212, read-out: MIC",16 µg/mL
same,times less active than vancomycin (MIC ratio),[10]; vancomycin sensitive E. faecalis ATCC 29212,16 times
same,MIC,"[11]; Staphylococcus epidermidis mecA, read-out: MIC",2 µg/mL
same,MIC,"[12]; Staphylococcus aureus MSSA ATCC 29213, read-out: MIC",8 µg/mL
same,cell viability,"[20]; teicoplanin : compound 14 2:32 µg/mL, percentage of untreated control",81.4%
same,toxicity of combination,[20]; teicoplanin : compound 14 32:2 µg/mL,not toxic
same,FIC index,[13]; 14 combined with teicoplanin,0.2578
same,FIC index,[13]; 14 combined with vancomycin,0.5078
same,MIC,"[13]; ATCC25218, checkerboard, read-out: MIC of 14 alone",256 µg/mL
same,MIC of 14 in comb.,[13]; combined with teicoplanin,32 µg/mL
same,MIC of 14 in comb.,[13]; combined with vancomycin,64 µg/mL
same,Combined effect,[14]; 14 combined with teicoplanin,neither synergy nor additive activity and None
same,Combined effect,[14]; 14 combined with vancomycin,neither synergy nor additive activity and None
same,MIC,"[14]; checkerboard, read-out: MIC of 14 alone",256 µg/mL
same,MIC of 14 in comb.,[14]; combined with teicoplanin,256 µg/mL
same,MIC of 14 in comb.,[14]; combined with vancomycin,256 µg/mL
same,FIC index,[15]; 14 combined with teicoplanin,0.2656
same,FIC index,[15]; 14 combined with vancomycin,0.75
same,MIC,"[15]; ATCCBAA1605, checkerboard, read-out: MIC of 14 alone",128 µg/mL
same,MIC of 14 in comb.,[15]; combined with teicoplanin,2 µg/mL
same,MIC of 14 in comb.,[15]; combined with vancomycin,32 µg/mL
same,FIC index,[16]; 14 combined with teicoplanin,0.375
same,FIC index,[16]; 14 combined with vancomycin,0.5625
same,MIC,"[16]; ATCC27853, checkerboard, read-out: MIC of 14 alone",256 µg/mL
same,MIC of 14 in comb.,[16]; combined with teicoplanin,32 µg/mL
same,MIC of 14 in comb.,[16]; combined with vancomycin,64 µg/mL
same,toxicity of combination,[21],not toxic
same,IC50,"[19]; MTT, 72 h",> 100 µM
same,IC50 (cytotoxicity),"[19]; MTT, 72 h",> 206.86 µg/mL
